Test results reported in patent US20040137472A1, “Methods and compositions for modification of splicing of pre-mRNA” (priority 2002, published 2004).

How the values were obtained:
Format in all cases: cell-based, human
IVS2-705U EGFP cells [1] = assay: EGFP fluorescence screen by fluorescence microscopy, IVS2-705U EGFP HeLa cells; set-up: key: Compounds causing moderate to high levels of fluorescence with no autofluorescence of the compound itself are indicated by a (+) sign; A (+/−) indicates compounds causing faint levels of fluorescence or compounds that have some autofluorescence in addition to causing the cells to fluoresce; A (−) sign indicates that the compounds did not cause detectable levels of fluorescence; conditions: 50 μM compound, 24 hours, detected by eye
Method: The screen was carried out using HeLa cell lines stably transfected with an EGFP (enhanced green fluorescent protein) construct. This construct contains the EGFP cDNA disrupted by intron 2 of the β-globin gene, containing thalassemic mutations (FIG. 1), and was under the control of the CMV promoter. Two different cell lines were generated with this construct, one with a mutation at position 654 (IVS2-654 EGFP) and another with a mutation at position 705 (IVS2-705U EGFP).
For both constructs, disruption of EGFP with mutated intron 2 results in a lack of production of a functional EGFP protein. When correct splicing is restored to a cell, intron 2 is excised and functional EGFP protein is generated (Sazani (2001) Nucl. Acids Res. 29:3965-3974).
Cells were plated in black well, clear bottom 96-well plates at 13×10^4 cells/ml, 100 μl per well. The rows on the ends of the plate (rows 1 and 12) were control rows and the remaining rows were treated with compounds. In the control rows, positive control EGFP cells were alternated with untreated cells serving as negative controls. […]
Twenty-four hours after treatment, the medium was removed and the cells were washed 2 times in 150 μl 1× PBS. […] Cells were then examined on an Olympus inverted fluorescence microscope at 10× or 20× using a FITC filter. Fluorescence was detected by eye. Attempts to utilize a fluorescence plate reader failed as the plate reader was not sensitive enough to detect the expected low levels of EGFP fluorescence.
The criteria used to designate a compound as a positive were as follows. […] Additionally, the fluorescence had to be mostly uniform throughout all of the cells. This criterion was complicated by the fact that many of the compounds had varying levels of autofluorescence, and therefore were difficult to distinguish from those that caused cellular fluorescence. […]
The IVS2-705U and IVS2-654 EGFP cell lines were treated a second time with the 132 positive compounds and analyzed on a fluorescence microscope. […]

IVS2-705 β-globin cells = assay: RT-PCR analysis of splicing correction, IVS2-705 β-globin cells; set-up: key: Compounds causing correction by RT-PCR. are indicated by a (+) sign; conditions: 50 μM compound
From the text: β-globin cell lines were obtained by stable transfection of HeLa cells with the human β-globin gene carrying thalassemic mutations at either IVS2-654 or IVS2-705. The cloned genes were under the control of the immediate early cytomegalovirus promoter (Sierakowska, et al., (1996) Proc. Natl. Acad. Sci. USA 93:12840-12844). The IVS2-654 EGFP cell line is well known in the art (Sazani (2001) Nucl. Acids Res. 29:3965-3974). The IVS2-705U EGFP cell line was made in the same manner using a different plasmid. HeLa cells were grown in SMEM with 5% horse serum, 5% fetal calf serum, 1% L-glutamine and 1% gentamicin/kanamycin.
(§1) A RT-PCR-based assay was performed to determine if the fluorescence observed on the EGFP cells was a result of the compounds shifting splicing. […] Therefore, primers located in exons 2 and 3 are used to PCR amplify the products, and the size difference is detected by running the products on an acrylamide gel.
After the IVS2-705U and IVS2-654 EGFP cells were re-treated with positive compounds and examined on the microscope, total RNA was isolated using TRI-REAGENT® (Molecular Research Center, Inc., Cincinnati, Ohio). A total of 200 ng of RNA was analyzed by reverse transcription polymerase chain reaction (RT-PCR) using rTth DNA polymerase (Perkin-Elmer, Boston, Mass.) according to manufacturer's instructions. […]

IVS2-705U EGFP cells [2] = assay: RT-PCR analysis of splicing correction, IVS2-705U EGFP cells; set-up: key: Compounds causing correction by RT-PCR. are indicated by a (+) sign; conditions: 50 μM compound
Method: as §1
After the IVS2-705U and IVS2-654 EGFP cells were re-treated with positive compounds and examined on the microscope, total RNA was isolated using TRI-REAGENT® (Molecular Research Center, Inc., Cincinnati, Ohio). A total of 200 ng of RNA was analyzed by reverse transcription polymerase chain reaction (RT-PCR) using rTth DNA polymerase (Perkin-Elmer, Boston, Mass.) according to manufacturer's instructions. The reverse transcription step was carried out at 70° C. for 15 minutes. The PCR step included 1 cycle, 95° C., 3 minutes: 18 cycles. 95° C., 1 minute, 65° C., 1 minute. For β-globin mRNA amplification, the reverse primer spanned positions 6-28 of exon 3 and the forward primer spanned positions 21-43 of exon 2 of the human β-globin gene. […]
FIG. 3 provides an example of a polyacrylamide gel with RT-PCR products from EGFP cells treated with several positive compounds. The amount of correction was determined by comparing the ratio of the aberrant band and the correct band.

Compound	705U EGFP Fluorescence (IVS2-705U EGFP cells [1])	705 β-globin RT-PCR (IVS2-705 β-globin cells)	705U EGFP RT-PCR (IVS2-705U EGFP cells [2])
CCOc1cccc(CN2CCN(c3ccc(F)cc3)CC2)c1O [AA11]	−	+	
COc1ccc(CCN(C)Cc2cc(OC)c(OC)cc2Br)cc1OC [Compound A5]	+/−		
CC(C)(C)c1ccc(C(=O)NNC(=O)Cc2ccc(-c3ccccc3)cc2)cc1 [Compound E11]	−	+	+
